Test results taken from patent publication US20260176279A1, “DUAL RAF AND TUBULIN INHIBITORS AND METHODS OF USE THEREOF” (Deciphera Pharmaceuticals, LLC, priority 2023, published 2026).
Read-outs that look alike come from different tables or passages of the source.

Tests used:
[1] = test system: HCT-116 cells; assay: HCT-116 Cell Proliferation Assay; assay type: cell-based; settings: Homo sapiens
Experimental: HCT-116 cells (catalog #CCL-247) are obtained from the American Type Culture Collect (ATCC, Manassas, VA). Briefly, cells are grown in McCoy's 5A supplemented with 10% characterized fetal bovine serum (Invitrogen, Carlsbad, CA) and 1% Penicillin/Streptomycin/L-Glutamine at 37° C., 5% CO2, and 95% humidity. Cells are expanded until reaching 70-95% confluency at which point they are sub-cultured or harvested for assay use. A serial dilution of test compound is dispensed into a 384-well black clear bottom plate in triplicate. 375 cells are added per well in 50 μL complete growth medium in the 384-well plate. Plates are incubated for 67 to 72 h at 37° C., 5% CO2, and 95% humidity. At the end of the incubation, 40 μL of a […] solution of resazurin (Sigma, St. Louis, MO) in PBS is added to each well of the plate and plates are incubated for an additional 4 to 5 hours at 37° C., 5% CO2, and 95% humidity. Plates are read on a Synergy2 or equivalent reader (Biotek, Winooski, VT) using an excitation of 540 nm and an emission of 600 nm. Data is analyzed using Prism software (Graphpad, San Diego, CA) to calculate IC50 values.

[2] = test system: MiaPaca-2 cells; assay: MiaPaca-2 Cell Proliferation Assay; assay type: cell-based; settings: Homo sapiens, MIA PaCa-2
Experimental: MiaPaca-2 cells (catalog #CRL-1420) are obtained from the American Type Culture Collect (ATTC, Manassas, VA). Briefly, cells were grown in DMEM supplemented with 10% characterized fetal bovine serum (Invitrogen, Carlsbad, CA), 2.5% New Zealand sourced horse serum and 1% Penicillin/Streptomycin/L-Glutamine at 37° C., 5% CO2, and 95% humidity. Cells are expanded until reaching 70-95% confluency at which point they are sub-cultured or harvested for assay use. For assays completed in 96-well plates, a serial dilution of test compound is dispensed into a 96-well black clear bottom plate in triplicate. Three thousand cells are added per well in 200 μL complete growth medium in the 96-well plate. Plates are incubated for 67 to 72 h at 37° C., 5% CO2, and 95% humidity. At the end of the incubation, 40 μL of a […] solution of resazurin (Sigma, St. Louis, MO) in PBS is added to each well of the plate and plates are incubated for an additional 5 to 6 hours at 37° C., 5% CO2, and 95% humidity. For 384-well assays, a threefold, 8-point serial dilution of compound was spotted column wise into a 384 well black, clear bottom, tissue culture treated plate using the Beckman Coulter Echo 650. Likewise, a threefold, 8-point serial dilution of cobimetinib was spotted row wise into the 384 well black, clear bottom plate containing compound. DMSO concentration was constant across all wells at 0.4%. Seven hundred fifty cells are added per well in 50 μL complete growth medium in each 384-well plate. Plates are incubated for 67 to 72 h at 37° C., 5% CO2, and 95% humidity. At the end of the incubation, 10 μL of a 440 μM solution of resazurin (Sigma, St. Louis, MO) in PBS is added to each well of the plate and plates are incubated for an additional 4 to 6 h at 37° C., 5% CO2, and 95% humidity. Plates are read on a Synergy2 or equivalent reader (Biotek, Winooski VT) using an excitation of 540 nm and an emission of 600 nm. Data is analyzed using Prism software (Graphpad, San Diego, CA) to calculate IC50 values.

[3] = test system: HPAF-II cells; assay: HPAF-II Cell Proliferation Assay; assay type: cell-based; settings: Homo sapiens
Experimental: HPAF-II cells (catalog #CRL-1997) are obtained from the American Type Culture Collect (ATCC, Manassas, VA). Briefly, cells are grown in Minimum Essential Media supplemented with 10% characterized fetal bovine serum (Invitrogen, Carlsbad, CA) and 1% Penicillin/Streptomycin/L-Glutamine at 37° C., 5% CO2, and 95% humidity. Cells are expanded until reaching 70-95% confluency at which point they are sub-cultured or harvested for assay use. A serial dilution of test compound is dispensed into a 384-well black clear bottom plate in triplicate. 750 cells are added per well in 50 μL complete growth medium in the 384-well plate. Plates are incubated for 115 to 120 h at 37° C., 5% CO2, and 95% humidity. At the end of the incubation, 40 μL of a […] solution of resazurin (Sigma, St. Louis, MO) in PBS is added to each well of the plate and plates are incubated for an additional 18 to 24 h at 37° C., 5% CO2, and 95% humidity. Plates are read on a Synergy2 or equivalent reader (Biotek, Winooski, VT) using an excitation of 540 nm and an emission of 600 nm. Data is analyzed using Prism software (Graphpad, San Diego, CA) to calculate IC50 values.

[4] = target: T1, C-Raf kinase (Homo sapiens, UniProt P04049, Y340D/Y341D); assay: Biochemical Assay for C-Raf (coupled pyruvate kinase/lactate dehydrogenase assay)
T1 construct: C-Raf residues 306-end; Y340D, Y341D with N-; GST (N); purchased Eurofins
T1 sequence (P04049 307-648 Y340D/Y341D): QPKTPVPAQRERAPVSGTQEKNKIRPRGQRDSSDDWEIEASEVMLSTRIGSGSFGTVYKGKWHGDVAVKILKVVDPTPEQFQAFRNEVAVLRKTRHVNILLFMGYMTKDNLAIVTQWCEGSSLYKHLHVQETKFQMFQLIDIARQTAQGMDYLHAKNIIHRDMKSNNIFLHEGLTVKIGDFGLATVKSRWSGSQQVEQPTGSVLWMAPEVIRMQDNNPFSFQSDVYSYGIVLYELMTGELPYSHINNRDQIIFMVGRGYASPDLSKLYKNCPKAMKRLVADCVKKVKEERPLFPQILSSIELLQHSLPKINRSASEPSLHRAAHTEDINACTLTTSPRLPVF

[5] = target: T2, B-Raf kinase (Homo sapiens, UniProt P15056); assay: Biochemical Assay for B-Raf (coupled pyruvate kinase/lactate dehydrogenase assay)
T2 construct: GST (N); purchased Sigma
T2 sequence (P15056 416-766): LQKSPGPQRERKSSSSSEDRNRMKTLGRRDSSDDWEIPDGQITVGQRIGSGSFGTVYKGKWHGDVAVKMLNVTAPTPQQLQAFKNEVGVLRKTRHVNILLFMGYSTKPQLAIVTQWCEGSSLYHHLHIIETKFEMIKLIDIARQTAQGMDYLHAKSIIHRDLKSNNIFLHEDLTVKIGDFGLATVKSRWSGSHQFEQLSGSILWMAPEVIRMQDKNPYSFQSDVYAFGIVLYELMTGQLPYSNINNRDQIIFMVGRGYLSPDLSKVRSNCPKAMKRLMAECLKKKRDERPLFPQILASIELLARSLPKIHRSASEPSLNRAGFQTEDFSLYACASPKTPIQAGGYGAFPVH

[6] = test system: tubulin; assay: Cellular Tubulin Polymerization Assay (HCT-116 cells); assay type: cell-based
[7] = HCT-116, Table 3, read-out: HCT-116 IC50
[8] = Table 1, inhibition of biochemical activity, read-out: CRAF
[9] = Table 1, inhibition of biochemical activity, read-out: BRAF
[10] = Table 3, HCT-116 cells, read-out: Tubulin Cellular IC50
[11] = Table 2, inhibition of cell proliferation, read-out: MiaPaca-2
[12] = Table 3, read-out: MiaPaca-2 IC50
[13] = HPAF-II, Table 3, read-out: HPAF-II IC50
[14] = Table 2, inhibition of cell proliferation, read-out: HCT-116
[15] = Table 2, inhibition of cell proliferation, read-out: HPAF-II
[16] = read-out: Tubulin Cellular, Table 5, HCT-116 cells
[17] = HCT-116, Table 4, read-out: HCT-116 IC50
[18] = Table 4, HCT-116 cells, read-out: Tubulin Cellular IC50
[19] = Table 4, read-out: MiaPaca-2 IC50
[20] = HPAF-II, Table 4, read-out: HPAF-II IC50

Measured: IC50

Cc1ccc2c(Nc3cccc(Cl)c3F)nccc2c1NC(=O)c1csc2c(N)ncnc12 [Belvarafenib, reference compound]
1000 to 10000 nM: [2]; Table 5, read-out: MiaPaca-2 | [3]; Table 5, read-out: HPAF-II
500 to 1000 nM: [1]; Table 5, read-out: HCT-116

Cc1ccc(NC(=O)Nc2ccc(C(F)(F)F)nc2)cc1-c1ccnc(-c2ccnc(NC(=O)CN(C)C)c2)c1 [Example 18]
< 100 nM: [4]; [8] | [4]; Table 3, read-out: CRAF IC50 | [5]; [9] | [5]; Table 3, read-out: BRAF IC50 | [2]; [11] | [2]; [12]
100 to 500 nM: [1]; [7] | [6]; [10] | [3]; [13]

CNc1cc(-c2cc(-c3cc(NC(=O)Nc4ccc(C(F)(F)F)nc4)ccc3C)ccn2)ccn1 [Example 19]
100 to 500 nM: [1]; [7] | [1]; [14] | [5]; [9] | [2]; [11] | [2]; [12] | [3]; [13] | [3]; [15]
< 100 nM: [4]; [8] | [4]; Table 3, read-out: CRAF IC50 | [5]; Table 3, read-out: BRAF IC50 | [6]; [10]

CNC(=O)c1cc(-c2cc(-c3cc(NC(=O)Nc4ccc(C(F)(F)F)nc4)ccc3C)ccn2)ccn1 [Example 20]
< 100 nM: [1]; [7] | [1]; [14] | [4]; [8] | [4]; Table 3, read-out: CRAF IC50 | [6]; [10] | [2]; [11] | [2]; [12]
100 to 500 nM: [5]; [9] | [5]; Table 3, read-out: BRAF IC50 | [3]; [13] | [3]; [15]

Cc1ccc(NC(=O)Nc2ccc(C(F)(F)F)nc2)cc1-c1ccnc(N2CCOCC2)c1 [Example 36]
100 to 500 nM: [4]; Table 3, read-out: CRAF IC50 | [5]; [9] | [5]; Table 3, read-out: BRAF IC50
< 100 nM: [1]; [7] | [1]; [14] | [4]; [8] | [6]; [10] | [2]; [11] | [2]; [12] | [3]; [13] | [3]; [15]

Cc1ccc(NC(=O)N2CC[C@@H](CC(F)(F)F)C2)cc1-c1cc(N[C@H](C)CO)nc(N2CCOCC2)c1 [Exarafenib, reference compound]
1000 to 10000 nM: [6]; [16]

C[C@@H](NC(=O)c1ncnc(N)c1Cl)c1ncc(C(=O)Nc2cc(C(F)(F)F)c(Cl)cn2)s1 [Tovorafenib, reference compound]
1000 to 10000 nM: [6]; [16]

Cc1cc(F)c(NC(=O)NCCC(C)(C)C)cc1-c1cc(OCCO)nc(N2CCOCC2)c1 [reference compound]
< 100 nM: [4]; Table 4, read-out: CRAF IC50 | [5]; Table 4, read-out: BRAF IC50
1000 to 10000 nM: [1]; [17] | [6]; [18] | [2]; [19] | [3]; [20]

CC(=O)Nc1cc(-c2cc(-c3cc(NC(=O)NCCC4(C)CC4)c(F)cc3C)ccn2)ccn1 [reference compound]
500 to 1000 nM: [1]; [17] | [3]; [20]
1000 to 10000 nM: [6]; [18] | [2]; [19]
< 100 nM: [4]; Table 4, read-out: CRAF IC50 | [5]; Table 4, read-out: BRAF IC50

Cc1ccc(NC(=O)Nc2cccc(C(F)(F)F)c2)cc1-c1cc(OCCO)nc(N2CCOCC2)c1 [reference compound]
100 to 500 nM: [1]; [17]
1000 to 10000 nM: [6]; [18]

Cc1ccc(NC(=O)NC2CCCCCC2)cc1-c1cc(OCCO)nc(N2CCOCC2)c1 [reference compound]
1000 to 10000 nM: [1]; [17] | [2]; [19] | [3]; [20]

Cc1ccc(NC(=O)N[C@@H]2CCc3ccccc32)cc1-c1cc(OCCO)nc(N2CCOCC2)c1 [reference compound]
1000 to 10000 nM: [1]; [17] | [2]; [19] | [3]; [20]

Cc1cc(F)c(NC(=O)Nc2cnn(C(C)(C)C)c2)cc1-c1cc(OCCN(C)C)nc(N2CCOCC2)c1 [reference compound]
1000 to 10000 nM: [1]; [17] | [2]; [19] | [3]; [20]

Cc1ccc(NC(=O)Nc2cn(C)nc2C(F)(F)F)cc1-c1cc(OCCO)nc(N2CCOCC2)c1 [reference compound]
1000 to 10000 nM: [1]; [17] | [4]; Table 4, read-out: CRAF IC50 | [5]; Table 4, read-out: BRAF IC50 | [3]; [20]

Cc1ccc(NC(=O)Nc2cnn(CC(F)(F)F)c2)cc1-c1cc(OCCO)nc(N2CCOCC2)c1 [reference compound]
1000 to 10000 nM: [1]; [17] | [5]; Table 4, read-out: BRAF IC50 | [3]; [20]

CC(=O)Nc1cc(-c2cc(-c3cc(NC(=O)Nc4ccc(C(F)(F)F)cc4)cnc3C)ccn2)ccn1 [reference compound]
1000 to 10000 nM: [1]; [17] | [6]; [18] | [3]; [20]

CNC(=O)c1cc(-c2cc(-c3cc(NC(=O)Nc4ccnc(C(C)(C)C#N)c4)ccc3C)ccn2)ccn1 [reference compound]
1000 to 10000 nM: [1]; [17] | [6]; [18]
500 to 1000 nM: [2]; [19]

CNC(=O)c1cc(-c2cnnc(-c3cc(NC(=O)N4CCC(C(C)(C)C)C4)ccc3C)c2)ccn1 (stereo not shown) [reference compound]
1000 to 10000 nM: [1]; [17] | [2]; [19] | [3]; [20]

CNC(=O)c1cc(-c2cc(-c3cc(NC(=O)NC4CCCCC4)c(F)cc3C)cc(OCCO)n2)ccn1 [reference compound]
1000 to 10000 nM: [1]; [17] | [3]; [20]
